Measurements reported in patent US20130143739A1, “HERBICIDAL COMPOSITION CONTAINING 4-amino-3-chloro-6-(4-chloro-2-fluoro-3-methoxyphenyl) pyridine-2-carboxylic acid or derivative thereof AND FLUROXYPYR or derivatives thereof” (DOW AGROSCIENCES LLC, priority 2011, published 2013).
Where “and” joins values, the source holds several entries; their conditions need not be identical. Equal entries are not always repeated.

Experiments:
Type in all cases: in vivo
CIRAR (Cirsium arvense) = test: Postemergence field trial, weed control in cereal crops; conditions: 14 DAA
Protocol: (§1) Evaluation of Postemergence Herbicidal Activity of Mixtures in Cereal crops and Range and Pasture.
(§2) Field trials were conducted in cereal crops (winter wheat (TRZAW), spring wheat (TRZAS) and spring barley (HORVU) in Canada, France, Germany, Spain, Denmark, United Kingdom and Belgium, and pasture trials were conducted in Colombia using standard herbicide small plot research methodology. Plot size was typical for small plot research, varying from 1.4 to 2 meters (m) wide by 3 to 10 m long. There were 2-4 replicates per treatment. The soil type ranged from coarse, to medium or heavy in terms of soil texture. Cereal crops were planted, grown and maintained as commercial production fields. Perennial pastures were natural plant and weed infestations as per normal local cultural practices. The cereal and pasture crops were grown using normal cultural practices for fertilization and maintenance to ensure good growth of the crop/pastures and the weeds.
(§3) Treatments were applied by backpack or bicycle sprayers using either compressed air, nitrogen, or carbon dioxide (CO2), at spray pressures from 200 to 300 Kpa. Spray tips were typically Flat Fan Teejet nozzles, such as TJ8003. Spray volumes varied from 200 to 400 liters per hectare (L/ha). MEOPA plant size at application varied from 70 to 80 centimeters (cm) tall active growth at flowering stage. All cereal weeds tested varied from 2 leaf to 8 leaf and often branched or tittered.
(§4) For each treatment, the appropriate formulated product amount to treat the plot area, to achieve the desired application rate, based on unit area of application (hectare), was calculated, measured, and mixed in water prior to applying with the backpack or bicycle sprayer. Treatments were rated as compared to the untreated control plots. The commercial fluroxypyr formulations used were Starane® Ultra (333 gr ae/liter) or Starane® 2 (200 gr ae/liter). Compound I was formulated as a 20% weight acid equivalent wettable granule (WG) or as a 7.5 gr ae/liter EC of the corresponding methyl ester. All Compound (I) treatments were tank mixed with an adjuvant. Compound (I) treatments in the cereal trials contained the safener cloquintocet-mexyl.
(§5) Colby's equation was used to determine the herbicidal effects expected from the mixtures (Colby, S. R. Calculation of the synergistic and antagonistic response of herbicide combinations. Weeds 1967, 15, 20-22.).
(§6) The following equation was used to calculate the expected activity of mixtures containing two active ingredients, A and B:
(§7) A=observed efficacy of active ingredient A at the same concentration as used in the mixture.
(§8) B=observed efficacy of active ingredient B at the same concentration as used in the mixture.

STAAN (Stachys annua) = test: as above; conditions: 14 DAA
Protocol: as §1, §2, §3, §4, §5, §6, §7, §8

STEME (Stellaria media) = test: as above
Protocol: as §1, §2, §3, §4, §5, §6, §7, §8

[1] = system: MATCH (Matricaria chamomilla); test: as above
Protocol: as §1, §2, §3, §4, §5, §6, §7, §8

[2] = system: CHEAL (Chenopodium album); test: as above; conditions: 14 DAA
Protocol: as §1, §2, §3, §4, §5, §6, §7, §8

[3] = system: CASOB (Cassia obtusifolia); test: Postemergence field trial, weed control in range and pasture; conditions: 29-42 DAA
Protocol: as §1, §2, §3, §4, §5, §6, §7, §8

[4] = system: MEOPA (Melochia parviflora); test: as above; conditions: for Obs, observed percent weed control: 14 DAA, Table 1; for % Visual Injury, Obs: 63 DAA
Protocol: as §1, §2, §3, §4, §5, §6, §7, §8

LAMPU (Lamium purpureum) = test: Postemergence field trial, weed control in cereal crops; conditions: 28 DAA
Protocol: as §1, §2, §3, §4, §5, §6, §7, §8

SINAR (Sinapis arvensis) = test: as above; conditions: 58 DAA
Protocol: as §1, §2, §3, §4, §5, §6, §7, §8

[5] = system: AMARE (Amaranthus retroflexus); test: as above; conditions: 56 DAA
Protocol: as §1, §2, §3, §4, §5, §6, §7, §8

VIOAR (Viola arvensis) = test: as above; conditions: 14 DAA
Protocol: as §1, §2, §3, §4, §5, §6, §7, §8

[6] = system: VEROF (Veronica officinalis); test: as above; conditions: 28 DAA
Protocol: as §1, §2, §3, §4, §5, §6, §7, §8

PAPRH (Papaver rhoeas) = test: as above; conditions: 28 DAA
Protocol: as §1, §2, §3, §4, §5, §6, §7, §8

[7] = system: VERHE (Veronica hederifolia); test: as above; conditions: 49 DAA
Protocol: as §1, §2, §3, §4, §5, §6, §7, §8

[8] = system: POLAV (Polygonum aviculare); test: as above; conditions: 13-27 DAA
Protocol: as §1, §2, §3, §4, §5, §6, §7, §8

[9] = fluroxypyr MHE 120 g ae/ha alone
[10] = fluroxypyr MHE 150 g ae/ha alone
[11] = fluroxypyr MHE 140 g ae/ha alone
[12] = fluroxypyr MHE 77 g ae/ha alone

Structure (SMILES): COc1c(Cl)ccc(-c2cc(N)c(Cl)c(C(=O)O)n2)c1F [XDE-729 (TEA)]
- % Visual Injury, Obs (CIRAR (Cirsium arvense); XDE-729 TEA 8.8 g ae/ha alone): 64%
- % Visual Injury, Obs (STAAN (Stachys annua); XDE-729 TEA 8.8 g ae/ha alone): 64%
- % Visual Injury, Obs (STEME (Stellaria media); 28 DAA, XDE-729 TEA 35 g ae/ha alone): 10%
- % Visual Injury, Obs ([1]; 27 DAA, XDE-729 TEA 35 g ae/ha alone): 8%
- % Visual Injury, Obs ([2]; XDE-729 TEA 8.8 g ae/ha alone): 83%

Structure (SMILES): COC(=O)c1nc(-c2ccc(Cl)c(OC)c2F)cc(N)c1Cl [XDE-729 (Methyl Ester), halauxifen-methyl]
- % Visual Injury, Obs ([3]; XDE-729 Me 18 g ae/ha alone): 6%
- % Visual Injury, Obs ([3]; XDE-729 Me 35 g ae/ha alone): 16%
- Obs, observed percent weed control ([4]; XDE-729 methyl ester 17.5 g ae/ha alone): 48.5%
- Obs, observed percent weed control ([4]; XDE-729 methyl ester 35 g ae/ha alone): 63.1%
- % Visual Injury, Obs ([4]; XDE-729 Me 18 g ae/ha alone): 25%
- % Visual Injury, Obs ([4]; XDE-729 Me 35 g ae/ha alone): 42%
- % Visual Injury, Obs (LAMPU (Lamium purpureum); XDE-729 Me 2 g ae/ha alone): 73%
- % Visual Injury, Obs (SINAR (Sinapis arvensis); XDE-729 Me 6 g ae/ha alone): 0%
- % Visual Injury, Obs ([5]; XDE-729 Me 5 g ae/ha alone): 50%
- % Visual Injury, Obs (STEME (Stellaria media); 30 DAA, XDE-729 Me 2 g ae/ha alone): 58%
- % Visual Injury, Obs (STEME (Stellaria media); 76 DAA, XDE-729 Me 4.5 g ae/ha alone, Table 3): 19%
- % Visual Injury, Obs (STEME (Stellaria media); 76 DAA, XDE-729 Me 4.5 g ae/ha alone, Table 5): 22%
- % Visual Injury, Obs (STEME (Stellaria media); 76 DAA, XDE-729 Me 6 g ae/ha alone, Table 3): 29%
- % Visual Injury, Obs (STEME (Stellaria media); 76 DAA, XDE-729 Me 6 g ae/ha alone, Table 5): 38%
- % Visual Injury, Obs ([1]; 54 DAA, XDE-729 Me 6 g ae/ha alone): 0%
- % Visual Injury, Obs (VIOAR (Viola arvensis); XDE-729 Me 6 g ae/ha alone): 10%
- % Visual Injury, Obs ([6]; XDE-729 Me 6 g ae/ha alone): 0%
- % Visual Injury, Obs (PAPRH (Papaver rhoeas); XDE-729 Me 6 g ae/ha alone): 54%
- % Visual Injury, Obs ([7]; XDE-729 Me 6 g ae/ha alone): 23%
- % Visual Injury, Obs ([8]; XDE-729 Me 2 g ae/ha alone): 0%
- % Visual Injury, Obs ([8]; XDE-729 Me 5 g ae/ha alone): 53%

Structure (SMILES): CCCCCCC(C)OC(=O)COc1nc(F)c(Cl)c(N)c1Cl (centres unmarked) [Fluroxypyr (MHE), Fluroxypyr Methylheptyl Ester, reference compound]
- % Visual Injury, Obs [3, 9]: 18%
- Obs, observed percent weed control [4, 9]: 3.5%
- % Visual Injury, Obs [4, 9]: 3% and 8%
- % Visual Injury, Obs (CIRAR (Cirsium arvense); [10]): 10%
- % Visual Injury, Obs (STAAN (Stachys annua); [10]): 30%
- % Visual Injury, Obs (LAMPU (Lamium purpureum); fluroxypyr MHE 50 g ae/ha alone): 4%
- % Visual Injury, Obs (SINAR (Sinapis arvensis); [11]): 13%
- % Visual Injury, Obs [5, 12]: 20%
- % Visual Injury, Obs (STEME (Stellaria media); 28 DAA, fluroxypyr MHE 200 g ae/ha alone): 27%
- % Visual Injury, Obs (STEME (Stellaria media); 30 DAA, fluroxypyr MHE 80 g ae/ha alone): 81%
- % Visual Injury, Obs (STEME (Stellaria media); 76 DAA, fluroxypyr MHE 110 g ae/ha alone, Table 5): 67%
- % Visual Injury, Obs (STEME (Stellaria media); 76 DAA, fluroxypyr MHE 140 g ae/ha alone, Table 3): 77%
- % Visual Injury, Obs ([1]; 27 DAA, fluroxypyr MHE 200 g ae/ha alone): 47%
- % Visual Injury, Obs ([1]; 54 DAA, fluroxypyr MHE 150 g ae/ha alone): 0%
- % Visual Injury, Obs (VIOAR (Viola arvensis); [11]): 50%
- % Visual Injury, Obs [6, 11]: 0%
- % Visual Injury, Obs (PAPRH (Papaver rhoeas); [11]): 5%
- % Visual Injury, Obs ([7]; fluroxypyr MHE 110 g ae/ha alone): 42%
- % Visual Injury, Obs [8, 12]: 25%
- % Visual Injury, Obs ([8]; fluroxypyr MHE 80 g ae/ha alone): 61%
- % Visual Injury, Obs [2, 10]: 10%
